Experimental findings from patent publication US8084456B2, “Pyrazine-based tubulin inhibitors” (YM Biosciences Australia Pty Ltd, priority 2002, dated 2011) are described below.

Molecules are shown by their SMILES.

The subject of test [1] is PC3 (Prostate Cancer) cells. The test is described as follows: Cellular growth assay (MTT), PC3. It is filed as cell-based. The conditions noted are these: Homo sapiens, PC-3, 40 hr incubation, read-out: PC3 (inhibition of 50% of cellular growth). On the procedure:
(§1) K562 (Chronic Myeloid Leukemia), PC3 (Prostate Cancer), and DU145 (Prostate Cancer) were obtained from the American Type Culture Collection (ATCC). K562 was grown in RPMI, with 10% FBS with Glutamx added. DU145 cells were cultured in DMED, with 10% FBS and Glutamx and MEM non-essential amino acids added. PC3 cells were grown in F12K medium, with 10% FBS and Glutamx and MEM non-essential amino acids added. All cells were grown at 37° C. in 5% CO2.

Another test concerns the target TelJak3 (Homo sapiens, UniProt P52333). Description: Cellular growth assay (MTT), BaF3 TEL/JAK3 cells. The conditions noted are these: 40 hr incubation, read-out: TelJak3 (inhibition of 50% of cellular growth). The test is classed as cell-based.
The target in another test is TelJak2 (Homo sapiens, UniProt O60674). Description: Cellular growth assay (MTT), BaF3 TEL/JAK2 cells. It is filed as cell-based. The conditions noted are these: 40 hr incubation, read-out: TelJak2 (inhibition of 50% of cellular growth).
Chain of TelJak2 (O60674 with tags, fused parts or gaps): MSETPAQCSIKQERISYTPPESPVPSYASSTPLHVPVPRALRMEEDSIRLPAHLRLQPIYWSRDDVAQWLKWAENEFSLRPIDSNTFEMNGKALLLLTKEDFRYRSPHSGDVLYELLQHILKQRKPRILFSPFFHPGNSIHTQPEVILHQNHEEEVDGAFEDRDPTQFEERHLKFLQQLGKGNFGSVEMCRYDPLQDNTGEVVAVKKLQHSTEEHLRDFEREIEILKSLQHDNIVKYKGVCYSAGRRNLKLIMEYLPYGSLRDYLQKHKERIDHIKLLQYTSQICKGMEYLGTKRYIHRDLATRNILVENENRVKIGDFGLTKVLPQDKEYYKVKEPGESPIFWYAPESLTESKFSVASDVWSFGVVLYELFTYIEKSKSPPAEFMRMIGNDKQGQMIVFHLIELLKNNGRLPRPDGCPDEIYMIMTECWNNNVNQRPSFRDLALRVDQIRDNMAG
Test [2] has as its system K562 (Chronic Myeloid Leukemia) cells. The test is described as follows: Cellular growth assay (MTT), K562. The test is classed as cell-based. To be noted: Homo sapiens, 40 hr incubation, read-out: K562 (inhibition of 50% of cellular growth). On the procedure:
as §1

The test system of test [3] is DU145 (Prostate Cancer) cells. The test is described as follows: Cellular growth assay (MTT), DU145. It is filed as cell-based. To be noted: Homo sapiens, DU-145, 40 hr incubation, read-out: DU145 (inhibition of 50% of cellular growth). On the procedure:
as §1

A further test concerns Tubulin. Description: Tubulin assay (turbidometric microtubule assembly). It is filed as biochemical. To be noted: at 50 μM, absorbance at 340 nm, 37° C. On the procedure:
Turbidometric assays of microtubule assembly were performed by incubating microtubule protein in cuvettes at 37° C. in a thermostatically controlled spectrophotometer measuring the change in absorbance at 340 nm over time. The microtubule protein was incubated with the each test compound at 0° C. and polymerisation was initiated by addition of 1 mM GTP, prior to heating to 37° C.

Chain of TelJak3 (P52333 with tags, fused parts or gaps): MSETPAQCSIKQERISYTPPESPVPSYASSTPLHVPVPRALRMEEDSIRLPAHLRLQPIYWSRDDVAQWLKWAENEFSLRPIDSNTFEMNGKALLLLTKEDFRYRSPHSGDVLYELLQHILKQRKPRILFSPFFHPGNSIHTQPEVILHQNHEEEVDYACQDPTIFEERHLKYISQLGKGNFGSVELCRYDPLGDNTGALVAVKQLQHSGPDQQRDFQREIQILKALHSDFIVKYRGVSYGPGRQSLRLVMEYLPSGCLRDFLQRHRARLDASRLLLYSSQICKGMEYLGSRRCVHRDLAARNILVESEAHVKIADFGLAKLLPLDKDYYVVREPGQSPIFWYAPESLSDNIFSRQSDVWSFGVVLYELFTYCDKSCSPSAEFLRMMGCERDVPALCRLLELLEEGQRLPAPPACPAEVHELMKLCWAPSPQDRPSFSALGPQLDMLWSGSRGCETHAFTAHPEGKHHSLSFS

With `CCCC(Nc1cncc(-c2ccc(O)c(OC)c2)n1)c1cccc(OC)c1` (stereo not shown), the IC50 (in test [1]; at TelJak3; on TelJak2; in test [2]; in test [3]) was at most 20 µM in each case. Besides, the “Tubulin (inhibition of tubulin polymerisation)” value in the test with Tubulin is given as “+ (inhibited tubulin polymerisation by greater than 50% at 50 μM)”.
`CCCC(Nc1cncc(-c2ccc(O)c(OC)c2)n1)c1ccc(Cl)cc1` (stereo not shown): the IC50 (in test [1]; at TelJak3; on TelJak2; in test [2]; in test [3]) was at most 20 µM each time. The “Tubulin (inhibition of tubulin polymerisation)” value in the test with Tubulin was “+ (inhibited tubulin polymerisation by greater than 50% at 50 μM)”.
Take `CCCC(Nc1cncc(-c2ccc(O)c(OC)c2)n1)c1ccc(C)cc1` (stereo not shown): the IC50 (in test [1]; at TelJak3; on TelJak2; in test [2]; in test [3]) was at most 20 µM each time. In addition, the “Tubulin (inhibition of tubulin polymerisation)” value in the test with Tubulin is on record as “+ (inhibited tubulin polymerisation by greater than 50% at 50 μM)”.
As for `CCCC(Nc1cncc(-c2ccc(O)c(OC)c2)n1)c1ccc(OC)cc1` (stereo not shown), the IC50 (in test [1]; on TelJak3; at TelJak2; in test [2]; in test [3]) was at most 20 µM in each case. For the same molecule, the “Tubulin (inhibition of tubulin polymerisation)” value with Tubulin is on record as “+ (inhibited tubulin polymerisation by greater than 50% at 50 μM)”.
Regarding `COc1cc(-c2cncc(NC(CC(C)C)c3ccccc3)n2)ccc1O` (stereo not shown), the IC50 in test [1] was above 20 µM; at TelJak3, at most 20 µM; at TelJak2, at most 20 µM; in test [2], at most 20 µM; in test [3] it was above 20 µM.
In the case of `CCCC(Nc1cncc(-c2ccc(O)c(OC)c2)n1)c1ccc(O)cc1` (stereo not shown), the IC50 is above 20 µM in test [1]; at most 20 µM on TelJak3; at most 20 µM on TelJak2; above 20 µM in test [2]; above 20 µM in test [3].
With `CCCC(Nc1cncc(-c2ccc(O)c(OC)c2)n1)c1ccc(SC)cc1` (stereo not shown), the IC50 in test [1] was above 20 µM; at TelJak3, at most 20 µM; on TelJak2, at most 20 µM; in test [2], at most 20 µM; in test [3] it was above 20 µM.
`CCCC(Nc1cncc(-c2cc(OC)c(OC)c(OC)c2)n1)c1ccccc1` (stereo not shown): the IC50 in test [1] is above 20 µM; on TelJak3, at most 20 µM; at TelJak2, at most 20 µM; in test [2] it was at most 20 µM; in test [3], at most 20 µM.
On to `CCCC(Nc1cncc(-c2cccc(OC)c2)n1)c1ccccc1` (stereo not shown), for which the IC50 in test [1] is above 20 µM; on TelJak3, at most 20 µM; at TelJak2, at most 20 µM; in test [2], at most 20 µM; in test [3], above 20 µM.
Take `COc1cc(-c2cncc(NC(CCO)c3ccccc3)n2)ccc1O` (stereo not shown): the IC50 was above 20 µM in test [1]; at most 20 µM at TelJak3; at most 20 µM on TelJak2; above 20 µM in test [2]; above 20 µM in test [3].
Take `CCCC(Nc1cncc(-c2ccc(O)c(OC)c2)n1)c1ccc(N(CC)CC)cc1` (stereo not shown): the IC50 in test [1] is above 20 µM; at TelJak3, at most 20 µM; on TelJak2, at most 20 µM; in test [2], above 20 µM; in test [3], at most 20 µM.
Regarding `CCCC(Nc1cncc(-c2ccc(O)c(OC)c2)n1)c1ccc(OC)c(OC)c1` (stereo not shown), the IC50 was above 20 µM in test [1]; at most 20 µM at TelJak3; at most 20 µM at TelJak2; at most 20 µM in test [2]; at most 20 µM in test [3].
Consider `CCCC(Nc1cncc(-c2ccc(N)c(OC)c2)n1)c1ccc(F)cc1` (stereo not shown), for which the IC50 (in test [1]; at TelJak3; at TelJak2; in test [2]; in test [3]) was at most 20 µM each time. In addition, in the test on Tubulin, the “Tubulin (inhibition of tubulin polymerisation)” value is “+ (inhibited tubulin polymerisation by greater than 50% at 50 μM)”.
With `CCCC(Nc1cncc(-c2ccc(O)c(OC)c2)n1)c1cccc(N)c1` (stereo not shown), the IC50 was at most 20 µM in test [1]; at most 20 µM on TelJak3; at most 20 µM at TelJak2; at most 20 µM in test [2]; above 20 µM in test [3]. In addition, the “Tubulin (inhibition of tubulin polymerisation)” value in the test on Tubulin is “+ (inhibited tubulin polymerisation by greater than 50% at 50 μM)”.
On to `CCC[C@H](Nc1cncc(-c2ccc(O)c(OC)c2)n1)c1cccnc1`, for which the IC50 (in test [1]; on TelJak3; on TelJak2; in test [2]; in test [3]) was at most 20 µM throughout. Also, in the test with Tubulin, the “Tubulin (inhibition of tubulin polymerisation)” value is listed as “+ (inhibited tubulin polymerisation by greater than 50% at 50 μM)”.
On to `CCCC(Nc1nc(-c2ccc(O)c(OC)c2)cnc1C)c1ccccc1` (stereo not shown), for which the IC50 (in test [1]; on TelJak3; at TelJak2; in test [2]; in test [3]) was at most 20 µM in each case. Also, the “Tubulin (inhibition of tubulin polymerisation)” value in the test with Tubulin is given as “+ (inhibited tubulin polymerisation by greater than 50% at 50 μM)”.
As for `CCCC(Nc1cncc(-c2ccc(O)c(OC)c2)n1)c1cccc(C(=O)OC)c1` (stereo not shown), the IC50 (in test [1]; on TelJak3; at TelJak2; in test [2]; in test [3]) was at most 20 µM each time. Besides, the “Tubulin (inhibition of tubulin polymerisation)” value in the test on Tubulin is recorded as “+ (inhibited tubulin polymerisation by greater than 50% at 50 μM)”.
Turning to `CCCC(Nc1cncc(-c2ccc(O)c(OC)c2)n1)c1cccc(NC(=O)c2cccnc2)c1` (stereo not shown), the IC50 (in test [1]; on TelJak3; on TelJak2; in test [2]; in test [3]) was at most 20 µM throughout. The “Tubulin (inhibition of tubulin polymerisation)” value in the test with Tubulin was “+ (inhibited tubulin polymerisation by greater than 50% at 50 μM)”.
Take `CCCC(Nc1cncc(-c2ccc(O)c(OC)c2)n1)c1cc(F)cc(F)c1` (stereo not shown): the IC50 in test [1] was above 20 µM; on TelJak3 it was at most 20 µM; at TelJak2 it was at most 20 µM; in test [2], at most 20 µM; in test [3], above 20 µM. The “Tubulin (inhibition of tubulin polymerisation)” value in the test on Tubulin is listed as “+ (inhibited tubulin polymerisation by greater than 50% at 50 μM)”.
As for `CCCC(Nc1cncc(-c2ccc(O)c(OC)c2)n1)c1cncc(C)c1` (stereo not shown), the IC50 in test [1] is at most 20 µM; on TelJak3 it was at most 20 µM; at TelJak2, at most 20 µM; in test [2], at most 20 µM; in test [3], above 20 µM. In the test on Tubulin, the “Tubulin (inhibition of tubulin polymerisation)” value was “+ (inhibited tubulin polymerisation by greater than 50% at 50 μM)”.
For `CCC[C@H](Nc1cncc(-c2ccc(N)c(OC)c2)n1)c1ccccc1`, the IC50 (in test [1]; at TelJak3; on TelJak2; in test [2]; in test [3]) was at most 20 µM each time. Besides, in the test on Tubulin, the “Tubulin (inhibition of tubulin polymerisation)” value is “+ (inhibited tubulin polymerisation by greater than 50% at 50 μM)”.
As for `CCCC(Nc1cncc(-c2ccc(N)c(OC)c2)n1)c1cccnc1` (stereo not shown), the IC50 (in test [1]; at TelJak3; at TelJak2; in test [2]; in test [3]) was at most 20 µM each time. Moreover, the “Tubulin (inhibition of tubulin polymerisation)” value with Tubulin was “+ (inhibited tubulin polymerisation by greater than 50% at 50 μM)”.
For `CCCC(Nc1cncc(-c2ccc(O)c(OC(C)C)c2)n1)c1cccnc1` (stereo not shown), the IC50 (in test [1]; at TelJak3; on TelJak2; in test [2]; in test [3]) was at most 20 µM throughout. Moreover, the “Tubulin (inhibition of tubulin polymerisation)” value in the test on Tubulin is on record as “+ (inhibited tubulin polymerisation by greater than 50% at 50 μM)”.
Consider `COc1cc(-c2cncc(NC(CCCCN3CCOCC3)c3ccccc3)n2)ccc1O` (stereo not shown), for which the IC50 in test [1] is above 20 µM; on TelJak3, at most 20 µM; at TelJak2 it was at most 20 µM; in test [2] it was above 20 µM; in test [3], above 20 µM.
For `CCC[C@H](Nc1cncc(-c2ccc(NCC)c(OC)c2)n1)c1ccccc1`, the IC50 in test [1] was at most 20 µM; at TelJak3, at most 20 µM; on TelJak2, at most 20 µM; in test [2], at most 20 µM; in test [3] it was above 20 µM.
With `COCCC(Nc1cncc(-c2ccc(O)c(OC)c2)n1)c1ccccc1` (stereo not shown), the IC50 (in test [1]; at TelJak3; at TelJak2; in test [2]; in test [3]) was at most 20 µM in each case. Also, the “Tubulin (inhibition of tubulin polymerisation)” value with Tubulin was “+ (inhibited tubulin polymerisation by greater than 50% at 50 μM)”.
As to `COc1cc(-c2cncc(NC(C)c3ccccn3)n2)ccc1O` (stereo not shown), the IC50 is above 20 µM in test [1]; at most 20 µM on TelJak3; at most 20 µM on TelJak2; above 20 µM in test [2]; above 20 µM in test [3].
